Measured values reported in patent US7674819B2 (Warner-Lambert Company LLC, priority 2005, dated 2010).

System: male Syrian hamsters
Test: Animal Model for Inhibition of Sebum Production (hamster ear, HPLC of sebum lipids)
Format: in vivo, Syrian hamster
Conditions: twice daily, five days a week, 4 weeks; for % CE reduction: cholesterol ester vs vehicle control; for % WE reduction: wax ester vs vehicle control
Experimental: Luderschmidt et al describes an animal model for testing whether compounds are capable of modulating sebum secretion. Arch. Derm. Res. 258, 185-191 (1977). This model uses male Syrian hamsters, whose ears contain sebaceous glands. Based on binding data and cellular assay data, selected compounds were chosen for screening in this model. Those compounds included the products of Examples 1, 20, 81, 82, and 109.
Testing for sebum inhibition was carried out in the following manner. Male Syrian hamsters aged 9 to 10 weeks were introduced into the laboratory environment and acclimated for 2 weeks prior to use in the study. Each group consisted of 5 animals and run in parallel with vehicle and positive controls. Prior to administration, a sufficient quantity each compound was dissolved in 1 mL of a solvent consisting of ethanol, transcutol, and propylene glycol (60/20/20% v/v/v) to achieve the final concentration specified in Table VIII below.
Animals were dosed topically twice daily, five days a week, for 4 weeks. Each dose consisted of 25 micro liters of vehicle control or drug. The dose was applied to the ventral surfaces of both the right and left ears. All animals were sacrificed approximately 18-24 hours after the final dose. The right ears were collected from each animal and used for sebum analysis.
The ears were prepped for HPLC analysis in the following manner. One 8 mm distal biopsy punch was taken, just above the anatomical “V” mark in the ear to normalize the sample area. The punch was pulled apart. The ventral biopsy surface (the area where the topical dose was directly applied to the sebaceous glands) was retained for testing and the dorsal surface of the biopsy punch was discarded.
Tissue samples were blown with N2 gas and stored at −80° C. under nitrogen until HPLC analysis. In addition to ear samples, an aliquot of each drug and vehicle (at least 250 ul) was also stored at −80° C. for inclusion in the HPLC analysis.
HPLC analysis was carried out on an extract of the tissue sample. Tissue samples were contacted with 3 ml of solvent (a 4:1 admixture of 2,2,4-trimethylpentane and isopropyl alcohol). The mixture was shaken for 15 minutes and stored overnight at room temperature, protected from light. The next morning 1 milliliter of water was added to the sample and shaken for 15 minutes. The sample was then centrifuged at approximately 1500 rpm for 15 minutes. Two ml of the organic phase (top layer) was transferred to a glass vial, dried at 37° C., under nitrogen, for approximately 1 hour, and then lyophilized for approximately 48 hours. The samples were then removed from the lyophilizer and each vial was reconstituted with 600 μl of solvent A (trimethylpentane/tetrahydrofuran (99:1). The samples were then recapped and vortexed for 5 minutes.
200 μl of each sample was then transferred to a pre-labeled 200 μl HPLC vial with 200 μL glass inserts. The HPLC vials were placed in the autosampler tray for the Agilent 1100 series HPLC unit. The Agilent 1100 HPLC system consisted of a thermostated autosampler, a quaternary pump, a column heater, and an A/D interface module. All components were controlled by Agilent ChemStation software. A Waters Spherisorb S3W 4.6×100 mm analytical column was maintained at 30° C. by the Agilent column heater unit.
The HPLC autosampler was programmed to maintain the sample temperature at 20 C throughout the run.
10 uL of each sample was injected in triplicate into the column. Two solvents were used for the solvent gradient. Solvent A was an admixture of trimethylpentane and tetrahydrofuran (99:1). Solvent B was ethylacetate. The gradient utilized is described in the table below: […]
The Sedex 75 Evaporative Light Scattering Detector (ELSD) was operated at 45° C. with a gain of 5, and N2 pressure maintained at 3.1 bar. Analog signal obtained by the instrument was sent to the Agilent A/D interface module where it was converted to a digital output. […]

| SMILES | % CE reduction (topical 1%) | Sum of WE & CE (topical 1%) | % WE reduction (topical 1%) | further results |
| --- | --- | --- | --- | --- |
| CCCCN1CC(C)(C)C(Oc2ccc(C#N)c(C(F)(F)F)c2)C1=O (single isomer, unassigned; (+)) [Example 20, (+)-4-(1-Butyl-4,4-dimethyl-2-oxo-pyrrolidin-3-yloxy)-2-trifluoromethyl-benzonitrile] | – | – | – | % CE reduction (topical 2%): 83%; Sum of WE & CE (topical 2%): 149; % WE reduction (topical 2%): 66% |
| CCCS(=O)(=O)N1CC(C)(C)C(Oc2ccc(C#N)c(C(F)(F)F)c2)C1=O (single isomer, unassigned; (+)) [Example 82, (+)-4-[4,4-Dimethyl-2-oxo-1-(propane-1-sulfonyl)-pyrrolidin-3-yloxy]-2-trifluoromethyl-benzonitrile] | 72% | 129 | 57% | – |
| CC[C@H](C)N1CC(C)(C)[C@@H](Oc2ccc(C#N)c(C(F)(F)F)c2)C1=O [Example 1, (3R,S)-(+)-4-(1-sec-Butyl-4,4-dimethyl-2-oxo-pyrrolidin-3-yloxy)-2-trifluoromethyl-benzonitrile] | 70% | 125 | 55% | – |
| CCCN1CC(C)(C)C(Oc2ccc(C#N)c(C(F)(F)F)c2)C1=O (stereo not drawn) [Example 4, 4-(4,4-dimethyl-2-oxo-1-propyl-pyrrolidin-3-yloxy)-2-trifluoromethyl-benzonitrile] | – | – | – | % CE reduction (topical 3%): 76%; Sum of WE & CE (topical 3%): 166; % WE reduction (topical 3%): 90% |
| CCCN1CC(C)(C)[C@@H](Oc2ccc(C#N)c(C(F)(F)F)c2)C1=O [Example 4A, (+)-4-(1-Propyl-4,4-dimethyl-2-oxo-pyrrolidin-3-yloxy)-2-trifluoromethyl-benzonitrile (E2)] | 76% | 161 | 85% | – |
| CC1(C)CN(S(C)(=O)=O)C(=O)C1Oc1ccc(C#N)c(C(F)(F)F)c1 (stereo not drawn) [Example 81, 4-(1-methanesulfonyl-4,4-dimethyl-2-oxo-pyrrolidin-3-yloxy)-2-trifluoromethyl-benzonitrile] | 12% | 20 | 8% | – |
| CC(c1ccccc1)N1CC(C)(C)C(Oc2ccc(C#N)cc2Cl)C1=O (stereo not drawn) [Example 109] | 64% | 116 | 52% | – |
